Values of other authors as cited in US20110152372A1, “ANHYDROUS PETROLEUM JELLY/ELASTOMER-FREE DEPIGMENTING COMPOSITIONS COMPRISING A SOLUBILIZED PHENOLIC COMPOUND AND A RETINOID” (Galderma Research & Development, priority 2008, published 2011).
Like-named read-outs stand apart in the source and are kept apart here.

**Q.** For `Oc1ccc(O)cc1` [hydroquinone], which Incidence of irritation (10% concentrations) is on record?
**A.** Its Incidence of irritation is “relatively high”.

**Q.** What about the Incidence of irritation (concentration of 2%) of the same molecule?
**A.** The Incidence of irritation was “virtually nonexistent”.

**Q.** What about the Incidence of irritation (preparations with a 5% dose) of the same molecule?
**A.** Its Incidence of irritation is “reduces greatly”.
